Values of other authors in patent publication US20090163599A1, “Mif adsorbant” (priority 2004, published 2009).

Target: T1, dopachrome tautomerase activity of MIF (Homo sapiens, UniProt P14174)
T1 sequence (P14174 2-115 limits assumed): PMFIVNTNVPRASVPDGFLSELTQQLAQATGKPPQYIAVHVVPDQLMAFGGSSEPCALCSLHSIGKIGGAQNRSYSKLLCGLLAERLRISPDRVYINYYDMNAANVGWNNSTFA
Details: known from Swope et al, J Biol Chem 273: 14877-14884, 1998

Row | inhibiting effect on the dopachrome tautomerase activity of MIF | SMILES
1 | strong inhibiting effect | CCCCCCSC[C@H](NC(=O)CC[C@H](N)C(=O)O)C(=O)NCC(=O)O [S-hexylglutathione]
2 | strong inhibiting effect | CCCCCCS [hexane thiol]
